target: Gamma-secretase; experiment: Inhibition of gamma-secretase (unknown origin) assessed as reduction in amyloid beta (1 to 42) production after 60 mins by cell based AlphaLisa assay; set-up: species or system Homo sapiens

Row | Compound | EC50
1 | CNc1nc(N[C@@H]2[C@@H]3CC[C@H]2CN(c2cc(C)ncn2)C3)nc2c1C(C)(C)CN2C1CC(F)(F)C1 | 36 nM
2 | CNc1nc(N[C@@H]2[C@@H]3CC[C@H]2CN(c2cc(C)ncn2)C3)nc2c1C(C)(C)CN2C12CC(C(F)(F)F)(C1)C2 | 111 nM
3 | CNc1nc(N[C@@H]2[C@@H]3CC[C@H]2CN(c2nnc(C)o2)C3)nc2c1C(C)(C)CN2c1ccc(F)cc1 | 34 nM

More lines, now with the values ahead:

Row | EC50 | Compound
4 | 14 nM | CNc1nc(N[C@@H]2[C@@H]3CC[C@H]2CN(c2cc(C)ncn2)C3)nc2c1C(C)(C)CN2c1ccc(F)cc1
5 | 19 nM | CNc1nc(N[C@@H]2[C@@H]3CC[C@H]2CN(c2ccnnc2)C3)nc2c1C(C)(C)CN2c1ccc(F)cc1
6 | 35 nM | CNc1nc(N[C@@H]2[C@@H]3CC[C@H]2CN(c2cc(C)ncn2)C3)nc2c1C(C)(C)CCN2c1ccc(F)cc1
